These results are taken from patent US20240299353A1, “COMPOSITIONS AND METHODS FOR TREATING […] 5-MEO-DMT” (Alvarius Pharmaceuticals Ltd., priority 2021, published 2024).

Assay [1] concerns hippocampal proteins. The assay is described as follows: Hippocampal LC-MS/MS proteomics, chronic cocaine with single psychedelic administration. Format: in vivo, Male Wister rats. As for the experimental part:
Animals were then randomly allocated to one of five groups and received a single i.p. injection of one of vehicle, 5 mg/kg 5-Meo-DMT, 0.14 mg/kg LSD, 1 mg/kg psilocybin, or 1 mg/kg DOI. On day 15, animals were euthanised and the hippocampus blunt dissected, snap frozen in liquid nitrogen and stored at −80° C. until further processing.
Protein from hippocampal tissue was processed for liquid chromatography tandem Mass Spectrometry (LC-MS/MS). Samples were run on a Thermo Scientific Q Exactive Mass Spectrometer connected to a Dionex Ultimate 3000 (RSLCnano) chromatography system in the UCD Conway Institute Core Mass Spectrometry Facility. Peptide and protein identification of MS/MS spectra were searched against the rat UniProt database using carbamidomethylation (C) as a fixed modification and acetylation (protein N terminus) and oxidation (M) as variable modifications with a false discovery rate filtering of 0.01. MaxQuant was using to generate label-free quantitative (LFQ) ion intensities and the Perseus statistical software contained in the MaxQuant package was used to analyse LFQ ion intensity. Statistical significance (p<0.05, FC±20%) of mean LFQ intensity between treatment groups was determined by two sample t-test. […] Networks were visualised using the stringApp (version 1.6.0) plugin for the Cytoscape software platform (version 3.8.2).

For assay [2], the system named is rats. The assay is described as follows: Open field test. The assay is classed as in vivo. Conditions: for duration of rearing behaviour, main effect: 5-MeO-DMT p=0.0047, cocaine p=0.0380; for duration of time spent in the centre of the arena: any treatment group; for number of rearings, main effect: cocaine p=0.0202, 5-MeO-DMT p=0.0020; for duration of time spent in the centre of the field: any of treatments. As to the method:
In this instance the animals were 9 weeks old at the initiation of drug exposures and we selected just the high (20 mg/kg) dose of 5-MeO-DMT from the molecular study. […] Due to the number of behavioral paradigms to be completed by each animal we divided the study into two cohorts staggered by two weeks with 8 animals coming from each cohort to make up the 16 animals for each treatment group. 23 hours after 5-MeO-DMT administration the animals were introduced to the open field arena where they were allowed to freely explore the area for 5 mins. Following the open field test (OFT) animals were returned to their home cage for 2 hours before beginning either the elevated plus maze (EPM) or pre-pulse inhibition (PPI) testing. 24 hours after completing the OFT animals were returned to the chamber for the first session in novel object (NO1) testing. The animals were returned to their home cage for 2 hours before beginning the EPM or PPI test. 24 hours after NO1 the animals returned to the open field chamber for the second session in novel object (N02) testing. After completing N02 animals were returned to their home cage for 2 hours before they underwent the forced swim test (FST) pre-test. 24 hours later the animals were returned to the FS cylinders for the FST. Upon completion of the FST all animals were euthanized. A timeline of this experimental cohort is described in FIG. 8A.
The experiment was conducted as described for cohort 1 for the first 13 days of injections. There are a number of notable differences in experimental procedures between the two cohorts of animals to be highlighted. […] Finally, the dose of 5-MeO-DMT was reduced to 10 mg/kg. The order and timing of all the behavioral paradigms were kept constant between the cohorts. A timeline of this experimental cohort is described in FIG. 8B. Additionally, 5-MeO-DMT administrations were staggered so animals could be observed for the duration of acute drug effects and to ensure recovery prior to the next animal being injected. The typical symptoms of psychedelic drug administration outlined above were reproduced in all animals administered 5-MeO-DMT.
The open field environment provides a fast and relatively easy test that determines a variety of behavioral information ranging from general ambulatory ability to data regarding the emotionality of the subject animal. The technique enables investigation of different pharmacological compounds for anxiolytic or anxiogenic effects (Seibenhener, M. L. & M. C. Wooten (2015) Use of the Open Field Maze to Measure Locomotor and Anxiety-like Behavior in Mice. Journal of Visualized Experiments: JoVE, 52434). Rodents show distinct aversions to large, brightly lit, open and unknown environments (Choleris, E., A. W. Thomas, M. Kavaliers & F. S. Prato (2001) A detailed ethological analysis of the mouse open field test: effects of diazepam, chlordiazepoxide and an extremely low frequency pulsed magnetic field. Neuroscience & Biobehavioral Reviews, 25, 235-260). These features are incorporated in the open field test and form the basis of its use in behavioural paradigm testing. There are various parameters that can be quantified from the open field, but the primary parameter of interest is thigmotaxis, the tendency of a subject to remain close to walls as determined by measuring time spent in inner zones versus outer zones of the maze (Simon, P., R. Dupuis & J. Costentin (1994) Thigmotaxis as an index of anxiety in mice. Influence of dopaminergic transmissions. Behavioural brain research, 61, 59-64). […] For the OFT, animals were placed in the open field arena and allowed to freely explore for 5 minutes. The session was recorded and analysed by EthoVision software which quantified the total distance covered. The number of entries into and total time spent in the centre of the arena were scored by two observers blind to experimental conditions (FIG. 9).

[3] abbreviates: cohort 1, cocaine+20 mg/kg 5-MeO-DMT.

On to `COc1ccc2[nH]cc(CCN(C)C)c2c1` [5-MeO-DMT, 5-methoxy-N,N-dimethyltryptamine], for which, in assay [1] (single i.p. dose (5-MeO-DMT 5 mg/kg, LSD 0.14 mg/kg, psilocybin 1 mg/kg, DOI 1 mg/kg) vs saline-saline, p<0.05, FC ±20%), the “differential expression of proteins in the control hippocampus” value is reported as 64 proteins. Moreover, the “differential expression of proteins in the chronic cocaine hippocampus” value in assay [1] (single i.p. dose after 14 days cocaine 20 mg/kg (5-MeO-DMT 5, LSD 0.14, psilocybin 1, DOI 1 mg/kg) vs cocaine-saline) came to 74 proteins. Also, the “reversal of chronic cocaine mediated proteomic changes in the hippocampus” value in assay [1] (single treatment (5-MeO-DMT 5, LSD 0.14, psilocybin 1, DOI 1 mg/kg i.p.)) amounted to 77%. In assay [2] (cohort 1, 20 mg/kg 5-MeO-DMT, p=0.0139, no post hoc differences), the “number of entries into the centre of the open field arena” value is reported as “significantly affected”. The “duration of rearing behaviour, main effect” value in assay [2] (cohort 1) is on record as “affected”. Also, in assay [2] (cohort 1), the “duration of time spent in the centre of the arena” value was “not affected by any treatment group”. Moreover, the “number of rearings, main effect” value in assay [2] (cohort 1) is given as “significantly affected”. Further, in assay [2] (setting [3]), the “duration of rearing behaviour” value is recorded as “significant decrease in the combination group relative to control”. Besides, the number of rearings entry was “significantly decreased the number of rearings relative to the control and cocaine-treated animals” in assay [2] (setting [3]); “significant effect” in assay [2] (cohort 2, 10 mg/kg 5-MeO-DMT, p=0.0031, no post hoc differences). Also, the total distance travelled result in assay [2] (cohort 1, cocaine+20 mg/kg 5-MeO-DMT relative to cocaine+vehicle) is “reduction in the total distance travelled”; in assay [2] (cohort 1, saline+20 mg/kg 5-MeO-DMT relative to saline+vehicle), “reduction in the total distance travelled”; in assay [2] (cohort 2, saline+10 mg/kg 5-MeO-DMT relative to saline+vehicle), “specific reduction in the total distance travelled”. Also, the duration of rearings result in assay [2] (cohort 2, 10 mg/kg 5-MeO-DMT, p=0.0837) is given as “not the duration of rearings”. In addition, the “duration of time spent in the centre of the field” value in assay [2] (cohort 2) is reported as “not changed by any of treatments”.
For `COC(=O)[C@H]1[C@@H](OC(=O)c2ccccc2)C[C@@H]2CC[C@H]1N2C.Cl` [cocaine, cocaine hydrochloride, reference compound], the “significantly regulated proteins in the hippocampus between saline and cocaine” value in assay [1] (cocaine 20 mg/kg i.p. daily for 14 days) is listed as 85 proteins. Moreover, in assay [2] (cohort 1), the “duration of rearing behaviour, main effect” value is “affected”; the “duration of time spent in the centre of the arena” value was “not affected by any treatment group”; the “number of rearings, main effect” value is “significantly affected”. Also, the “duration of time spent in the centre of the field” value in assay [2] (cohort 2) is listed as “not changed by any of treatments”. The “number of entries into the centre of the open field” value in assay [2] (cohort 2, cocaine p=0.0448, no post hoc differences) was “significantly affected”.
